Experimental data reported in patent US6794491B1, “Polypeptides, their production and use” (Takeda Chemical Industries, Ltd., priority 1995, dated 2004).
Where no end group is shown, it is not given here.

What was measured:
[1] = glucose-induced increase in plasma insulin concentration; assay type: in vivo, Male Wistar rats; details: bolus injection in the jugular vein with glucose 86 mg/rat
Experimental: Male Wistar rats (8-10w) were anesthetized by i.p. injection of pentobarbital (65 mg/kg). Glucose alone (86 mg/rat) or glucose and 19P2-L31 (675 pmol, 2.25 nmol, 6.75 nmol and 67.5 nmol/rat) were administered by bolus injection in the jugular vein. Blood samples were withdrawn from the contralateral vein. Plasma insulin concentration was determined with a radioimnunoassay kit (Amersham).

[2] = motor activity of mouse after administration to lateral ventricle; assay type: in vivo, ICR male mice; details: for rearing behavior (increasing tendency) / spontaneous motor activity / rearing behavior: lateral ventricle, mouse
Experimental: The effects of administration of […] to mouse lateral ventricle on motor activity were studied. The mature ICR male mice (weight at operation: about 35 g) were anesthetized by intraperitoneal administration of 50 mg/kg of pentobarbital, and then fixed on a stereotaxic apparatus. The skull of a said mouse was exposed, then a hole was made by dental drill for guide-cannulization into the left lateral ventricle. The tip of a stainless-steel guide-cannula (24 G, length: 5 mm) for drug injection to lateral ventricle, was inserted to the position of AP: +0.6 mm (from bregma), L: left 1 mm and H: −1 mm (from dura matter). The guide-cannula was fixed onto the skull with adhesive. The cannula-implanted mice were housed as described above and were used for behavioral analysis at least 3 days after the operation.
Motor activity such as spontaneous motor activity and rearing was measured while each mouse was in a transparent acrylic cage (24×37×30 cm) within a soundproofed, illuminated (light up: at 6-18 o'clock) box. Tap water and laboratory chow were available ad libitum. Motor activity was measured by means of a Supermex (Muromachi Kikai). Drugs and PBS were administered at 2:30±30 p.m. At the administration, a stainless-steel micro-injection cannula (30 G, length: 6 mm) was inserted into the guide-cannula. The micro-injection cannula was connected to a microsyringe pump with Teflon tube, and injection of PBS or a peptide dissolved in PBS lasted for 2 minutes at a speed of 2 μl/min. The micro-injection cannula was withdrawn after over a period of 2 minutes from end of injection, then motor activity was meausred.
The results are expressed as a mean±S.E.M. Student's t test was used to determine the significance of differences between values from the mice treated with a peptide and the PBS-injected controls. For the purpose of this analysis, p<0.05 was assumed to be the minimal level of significance.

[3] = plasma pituitary hormone level after administration into the third ventricle, pentobarbital anesthesia; assay type: in vivo, male Wistar rats
Experimental: The inventors explored the effect of 19P2-L31 administered into the third ventricle on pituitary hormone levels in the plasma. Mature male Wistar rats (body weights at operation: 290-350 g) were anesthetized with pentobarbital, 50 mg/kg i.p., and each immobilized in a rat brain stereotaxic apparatus. The incisor bar was set 3.3 mm lower from the interaural line. The skull was exposed, and using a dental drill a hole was made on the bone for implantation of a guide cannula. In addition, an anchor screw was buried in one position around the hole. A stainless-steel guide cannula, AG-12 (0.4 mm in. dia., 0.5 mm out. dia., EICOM), was inserted in such a manner that its tip would be situated in the upper part of the third ventricle. With reference to the atlas of Paxinos and Watson (1986), the stereotaxic coordinates were AP: +7.2 mm (from interaural line), L: 0.0 mm, and H: +2.0 mm (from interaural line). The guide cannula was secured to the skull using an instant adhesive, a dental cement, and an anchor piece. A stainless-steel dummy cannula, AD-12 (0.35 mm out. dia., EICOM), was then passed through the guide cannula and locked in position with a cap nut (EICOM). After the operation the rats were housed in individual cages and kept for at least 3 days for recuperation before starting the experiment.
The operated rat was anesthetized with pentobarbital 50 mg/kg i.p. and immobilized in dorsal position. After the bilateral jugular veins were exposed, 400 μl of blood was drawn using a 1 ml tuberculin syringe and a 24-G needle (both by Termo). To prevent clotting, the syringe was filled with 20 μl of saline containing 200 U/ml of heparin beforehand. The cap nut and dummy cannula were removed from the rat skull and, instead, a stainless steel microinjection cannula (0.17 mm in. dia., 0.35 mm out. dia., EICOM) connected to Teflon tube (50 cm long, 0.1 mm in. dia., 0.4 mm out. dia., EICOM) was inserted. The length of the microinjection cannula was adjusted beforehand so that its tip would be emergent from the guide cannula by 1 mm. One end of the Teflon tube was connected to a microsyringe pump and either PBS or 19P2-L31 dissolved in PBS was injected, in a total volume of 10 μl, into the third ventricle at a flow rate of 2.5 μl/min. After a standby time of 1 minute following infusion, the microinjection cannula was disconnected and the dummy cannula was reinstated and locked in position with a cap nut. Immediately before initiation of intraventricular administration and 10, 20, 30, 40, and 60 minutes after initiation of administration, 400 μl portions of blood were drawn from the jugular vein. Each blood sample was centrifuged (5,000 rpm, 10 min.) with a high-speed refrigerated microcentrifuge (MR-150, Tommy Seiko) and the supernatant (plasma) was recovered. The amounts of pituitary hormones [prolactin, luteinizing hormone (LH), adrenocorticotropic hormone (ACTH), thyroid-stimulating hormone (TSH), and growth hormone (GH)] in the plasma were respectively determined by radioimmunoassays.
The results were expressed as a mean±S.E.M. To test for significant difference between the group treated with 19P2-L31 dissolved in PBS and the control group treated with PBS alone, Student's t-test was used. According to the two-tailed test, p<0.05 was assumed to be the minimal level of significance.

[4] = 50 nmol into the third ventricle, anesthetized rats

## Ser-Arg-Ala-His-Gln-His-Ser-Met-Glu-Ile-Arg-Thr-Pro-Asp-Ile-Asn-Pro-Ala-Trp-Tyr-Ala-Gly-Arg-Gly-Ile-Arg-Pro-Val-Gly-Arg-Phe-NH2 (SRAHQHSMEIRTPDINPAWYAGRGIRPVGRF-NH2) [19P2-L31, synthetic ligand polypeptide]
[1]; 675 pmol/rat
  glucose-induced increase in plasma insulin concentration (first and second phase): partially inhibited
[1]; 2.25 nmol/rat
  glucose-induced increase in plasma insulin concentration (first and second phase): partially inhibited
[1]; 6.75 nmol/rat
  glucose-induced increase in plasma insulin concentration (first and second phase): partially inhibited
[1]; 67.5 nmol/rat
  glucose-induced increase in plasma insulin concentration (first and second phase): completely inhibited
[2]; 0.01 nmol
  rearing behavior (increasing tendency): not statistically significant
[2]; 0.01 nmol, at 20 min and 40 min after injection
  spontaneous motor activity: significant increase
[2]; 0.1 nmol
  rearing behavior (increasing tendency): not statistically significant
[2]; 0.1 nmol, at 25 min, 40 min and 70 min after injection
  spontaneous motor activity: significant increase
[2]; 1 nmol
  spontaneous motor activity: did not cause statistically significant change
[2]; 1 nmol, at only 105 min after injection
  rearing behavior: significant decrease
[2]; 10 nmol
  rearing behavior: significant variation
  spontaneous motor activity: significant increase
[2]; 0.01-10 nmol, lateral ventricle of mice, summary
  amount of activity (motor activity): an increase in the amount of activity was found
[3]; [4]
  plasma ACTH: none showed significant changes
  plasma LH: none showed significant changes
  plasma TSH: none showed significant changes
  plasma prolactin: none showed significant changes
[3]; 50 nmol into the third ventricle, anesthetized rats, 10, 30, and 40 minutes after administration, not statistically significant
  plasma GH level: Tendencies toward decrease
[3]; 50 nmol into the third ventricle, anesthetized rats, 20 minutes after administration, versus control
  plasma GH level: significantly decreased
[3]; 50 nmol into the third ventricle, anesthetized rats, 60 minutes after administration
  plasma GH level: no difference from the control group
[3]; injected into the third ventricle of rats, summary
  plasma growth hormone level: depressed
